Experimental data: patent US12297192B2, “Crystal form of pyrimidine sulfonamide compound and preparation method therefor” (WUXI BIOCITY BIOPHARMACEUTICS CO., LTD., priority 2019, dated 2025)
Read-outs that look alike come from different tables or passages of the source.

Key:
[1] = tested on: pulmonary hypertension in SD rats induced by monocrotaline (MCT); assay: In vivo pharmacodynamic evaluation, monocrotaline (MCT)-induced pulmonary hypertension model; details: for 21-day weight change rate / PCNA positivity rate / Percentage of middle pulmonary artery intima-media thickness / Right ventricular ejection fraction / Right ventricular hypertrophy index / Right ventricular systolic pressure / Right ventricular wall thickness: 21 days, Mean ± SEM, n = 12
From the text: The animal model of pulmonary hypertension in SD rats induced by monocrotaline (MCT) was used in this study to examine the pharmacological effects of the test compound on a rat model of pulmonary hypertension.
• Species: Rat • Strain: Sprague-Dawley • Age at arrival at animal house: 5 weeks • Gender: Male • Animal weight at the start of the experiment: 200-260 g • Number: 88 (81 for pharmacodynamic (PD) and pharmacokinetic (PK) tests and 7 for PK-blank matrix) • Supplier: Shanghai SLAC Experimental Animals Co. • Certificate of the animals: 20170005008695 Other Reagent Information
Solutions of 3 mg/mL Macitentan, 0.1 mg/mL, 0.3 mg/mL and 1 mg/mL the compound of formula (I): an appropriate amount of the compound was weighed and added to a flask with an appropriate volume. PEG 400 of 20% of the total volume was added. Heating and stirring were conducted at 40° C. Tween 80 of 0.5% of the total volume was added. Heating and stirring were conducted at 40° C. Deionized water of 70-75% of the volume was added. Heating and stirring were conducted at 40° C. The pH was adjusted with 5 N NaOH until became clear. Then the pH was reversely adjusted to less than 9 with 6 N HCl and 1 N HCl. The remaining volume was made up with deionized water to achieve the total volume. The final pH was determined (9±0.1).
After the animals had been acclimatized for about 1 week, the animals were randomized into 9 groups according to body weight and the condition of the animal, as shown in Table 15.
Monitoring Indicators Monitoring Indicators in PD Tests • 1) Daily monitoring of the general condition of the animals and their body weights; • 2) Right ventricular function tests: right ventricular ejection fraction (RVEF), right ventricular wall thickness (RVWT); • 3) Hemodynamic tests: right ventricular systolic pressure (RVSP); • 4) Determination of the right ventricular hypertrophy index (RVHI): RV/(LV+SEP); • 5) […] staining to observe PAWT/IHC staining to observe PCNA as the endpoint detection. Monitoring Indicators in PK Tests • 1) Daily monitoring of the general condition of the animals and their body weights; • 2) Plasma: determination of the pharmacokinetic parameters of the compounds in plasma. Test Method B-Mode Ultrasonic Detection of RVEF, RVWT
Rats were anesthetized with 30 mg/mL pentobarbital sodium (2 mL/kg, ip) and RVEF, RVWT were measured using a small animal ultrasound instrument (VEVO-1100).
Rats were anesthetized with 30 mg/mL sodium pentobarbital (2 mL/kg, ip), fixed onto a surgical plate in supine position, and shaved on the neck. A skin incision was made on the neck. The subcutaneous tissue and muscle layer were bluntly dissected. And the left carotid artery and right jugular vein were stripped. A rat-specific right heart catheter (a PE tube with an external diameter of about 1.5 mm and a small arc-shaped curve at the distal end) connected to a pressure transducer and filled with 0.3% heparin sodium solution was inserted into the right external jugular vein. The arc of the pulmonary artery catheter was kept downwards during the operation and the pulmonary artery catheter was threaded towards the right atrium. The pressure waveform was used to judge whether it had reached the heart. The catheter was deflected towards the left and pushed forward into the right ventricle.
The heart was removed. The atria and great vessels were removed. Blotted to dryness with filter paper. The right ventricle was stripped and weighed to calculate RVHI=RV/(LV+SEP).
After euthanasia of the rats, the middle lobe of the right lung was removed, perfused using saline and placed in 4% paraformaldehyde for fixation for the purpose of pathological examination.
All data was entered into an Excel document and expressed as mean (Mean)±standard error of mean (SEM). One-way ANOVA with Dunnett's t test was used to analyze and compare the data of each group. Differences between two groups were compared using the unpaired two-tailed t-test method.

[2] = target: T1, bile salt export pump (BSEP) (Homo sapiens, UniProt O95342); assay: Inhibition test on bile salt export pump (BSEP), taurocholic acid uptake in BSEP-Hi5-VT vesicles; assay type: in vitro ADME
T1 construct: purchased Solvo Biotechnology SB-BSEP-Hi5-VT; host or cells: Hi5 insect cells (read from the product name), membrane vesicles
T1 sequence (O95342 whole entry): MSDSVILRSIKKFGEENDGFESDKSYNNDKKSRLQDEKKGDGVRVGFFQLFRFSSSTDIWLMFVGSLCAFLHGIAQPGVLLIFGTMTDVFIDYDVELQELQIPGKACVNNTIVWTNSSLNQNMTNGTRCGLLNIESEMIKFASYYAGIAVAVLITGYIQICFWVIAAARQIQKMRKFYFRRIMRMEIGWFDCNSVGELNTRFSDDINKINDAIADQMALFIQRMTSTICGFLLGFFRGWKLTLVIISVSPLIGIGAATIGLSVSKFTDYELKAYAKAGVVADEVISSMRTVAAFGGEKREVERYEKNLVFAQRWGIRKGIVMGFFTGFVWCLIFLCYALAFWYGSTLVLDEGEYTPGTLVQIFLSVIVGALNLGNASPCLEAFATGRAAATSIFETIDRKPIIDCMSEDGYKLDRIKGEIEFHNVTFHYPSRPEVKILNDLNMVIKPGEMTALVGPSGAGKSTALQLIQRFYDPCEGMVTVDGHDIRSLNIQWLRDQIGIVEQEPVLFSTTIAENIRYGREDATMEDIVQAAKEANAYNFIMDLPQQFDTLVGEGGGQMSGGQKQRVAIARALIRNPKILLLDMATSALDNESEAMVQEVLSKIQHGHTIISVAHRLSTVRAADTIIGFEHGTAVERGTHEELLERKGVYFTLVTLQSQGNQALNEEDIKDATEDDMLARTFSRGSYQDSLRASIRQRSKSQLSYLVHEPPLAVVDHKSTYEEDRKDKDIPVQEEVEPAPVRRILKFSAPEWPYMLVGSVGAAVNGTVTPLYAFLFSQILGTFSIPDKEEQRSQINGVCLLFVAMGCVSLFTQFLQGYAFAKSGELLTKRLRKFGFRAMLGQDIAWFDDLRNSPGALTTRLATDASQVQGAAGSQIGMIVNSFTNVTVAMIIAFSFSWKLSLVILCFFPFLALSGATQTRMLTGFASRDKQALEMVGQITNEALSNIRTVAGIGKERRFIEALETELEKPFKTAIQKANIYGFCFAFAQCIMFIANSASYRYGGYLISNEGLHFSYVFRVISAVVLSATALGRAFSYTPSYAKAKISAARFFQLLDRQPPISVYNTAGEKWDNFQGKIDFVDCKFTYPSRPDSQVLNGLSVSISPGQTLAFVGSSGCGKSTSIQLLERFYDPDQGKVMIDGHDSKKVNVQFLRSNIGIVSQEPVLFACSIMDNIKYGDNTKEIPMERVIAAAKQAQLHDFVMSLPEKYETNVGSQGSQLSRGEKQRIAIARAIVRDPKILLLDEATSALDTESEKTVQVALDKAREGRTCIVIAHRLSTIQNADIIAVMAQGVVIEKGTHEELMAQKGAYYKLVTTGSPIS
Experimental: Compounds were diluted to 100 mM with DMSO; then subjected to a serial dilution of 3-fold for eleven dilutions. The minimum concentration was 0.169 μM. • 2. […] The minimum concentration was 19.5 μM. Experimental Protocol: • 1. ECHO was used to transfer 0.3 μl of DMSO solution of the compounds or diluted DMSO to the corresponding wells of the compounds plate, respectively. • 2. 14.7 μl of ATP Buffer was added into the corresponding wells of the compounds and the zero percent effect (ZPE), respectively. • 3. 14.7 μl of AMP Buffer was added into the corresponding wells of the hundred percent effect (HPE). • 4. The plate was shaken for 10 minutes at 25° C. • 5. 15 μl of BSEP-Hi5-VT Vesicle solution was added to each well separately and the plate was shaken for a further 40 minutes at 25° C. • 6. 5 μl of 0.5 M Ethylenediaminetetraacetic acid (EDTA) solution was immediately added to each well, followed by 65 μl of Buffer B. All reactions were complete. • 7. After the reactions were complete, 95 μl of liquid was transferred from the compounds plate to the filter plate using apparatus. • 8. The liquid receiving plate was placed under the filter plate. Then the liquid was removed using a centrifuge. The liquid on the receiving plate was discarded. • 9. 90 μl of Buffer B was added to the filter plate. The liquid receiving plate was placed under the filter plate. Then the liquid was removed using a centrifuge. The liquid on the receiving plate was discarded. The filter plate was washed three times in total. • 10. The filter plate was left to dry overnight. • 11. On the next day, 80 μl of methanol/water (80/20, v/v) solution was added to the filter plate. • 12. The plate was vibrated for 15 minutes after applying the film to the filter plate. • 13. […] Taurocholic acid in the receiving plate was determined using LC/MS/MS.
Several concentrations were tested in each experiment and the data was analyzed using Prism to produce a concentration-response curve to calculate the IC50 values of the compounds.

[3] = Pharmacokinetics accompanying the efficacy in the MCT-induced rat model of pulmonary hypertension; assay type: in vivo, SD rats; details: day 21, mean, n = 3; for MRT last: read-out: MRT0-last; for MRT inf: read-out: MRT0-inf
Experimental: Blood samples were taken before and after dosing on the day of the endpoint, at time points of 0, 0.25, 0.5, 1, 2, 4, 6 and 8 h. The rats were placed in a fixator, 250 μL of blood was collected from the tail vein, transferred to an EP tube with anticoagulant (5-8 μL of 15% EDTA), inverted and shaken, and immediately placed on wet ice for temporary storage. The collected blood samples were placed in centrifugal machines and centrifuged at 4° C., 3000 rpm for 15 min. The plasma was collected after centrifugation and immediately placed on dry ice. After all samples have been collected and transferred to cryopreservation at −80° C. for pharmacokinetic analysis.
Blood samples were collected before and after dosing on day 21 and collected at time points 0, 0.25, 0.5, 1, 2, 4, 6 and 8 h for analysis of plasma drug concentrations of the compound of formula (I) and Macitentan.

[4] = Sprague-Dawley, rat, plasma, po, 30 mg/kg gavage
[5] = Sprague-Dawley, rat, plasma, po, 1 mg/kg gavage
[6] = Sprague-Dawley, rat, plasma, po, 3 mg/kg gavage

With `CCCNS(=O)(=O)Nc1ncnc(OCCOc2ncc(Br)cn2)c1-c1ccc(Br)cc1` [Macitentan, reference compound] the “21-day weight change rate” value ([1]; 30 mg/kg gavage once a day) was 45.75 ± 2.14%, the PCNA positivity rate ([1]; 30 mg/kg gavage once a day) was 4.43 ± 0.42% and the “Percentage of middle pulmonary artery intima-media thickness” value (shortened to “Percentage”) ([1]; 30 mg/kg gavage once a day) was 46.56 ± 1.07 %. For the same compound, the “Right ventricular ejection fraction” value ([1]; 30 mg/kg gavage once a day) was 58.87 ± 1.71 %, the “Right ventricular hypertrophy index” value ([1]; 30 mg/kg gavage once a day) was 0.36 ± 0.03 and the “Right ventricular systolic pressure” value ([1]; 30 mg/kg gavage once a day) was 38.71 ± 3.52 mmHg. The “Right ventricular wall thickness” value ([1]; 30 mg/kg gavage once a day) was 1.13 ± 0.04 mm, the “Inhibitory effect on bile salt export pump (in words)” value [2] was “strong inhibitory effect” and the IC50 ([2]; taurocholic acid substrate, BSEP-Hi5-VT vesicles) was 470 nM. It also gave a Tlast ([3]; 30 mg/kg gavage) of 8.00 h, an AUC(0-t) [3, 4] of 11000 ng·h/mL and a Cmax [3, 4] of 1840 nM. It also gave a Tmax [3, 4] of 4.08 h and an MRT last [3, 4] of 4.38 h.
In the case of `COCCNS(=O)(=O)Nc1ncnc(OCCOc2ncc(Br)cn2)c1-c1ccc2c(c1)OCO2` [Compound of formula (I)], the “21-day weight change rate” value ([1]; 1 mg/kg PO/QD) is reported as 43.33 ± 1.56%, the PCNA positivity rate ([1]; 1 mg/kg PO/QD) is reported as 3.6 ± 0.69 % and the “Percentage” value ([1]; 1 mg/kg PO/QD) is reported as 40.44 ± 1.13 %. The “Right ventricular ejection fraction” value ([1]; 1 mg/kg PO/QD) was 58.48 ± 2.11 %, the “Right ventricular hypertrophy index” value ([1]; 1 mg/kg PO/QD) was 0.40 ± 0.01 and the “Right ventricular systolic pressure” value ([1]; 1 mg/kg PO/QD) was 40.72 ± 3.38 mmHg. The “Right ventricular wall thickness” value ([1]; 1 mg/kg PO/QD) was 1.16 ± 0.05 mm, the “21-day weight change rate” value ([1]; 3 mg/kg PO/QD) was 41.23 ± 3.47% and the PCNA positivity rate ([1]; 3 mg/kg PO/QD) was 3.56 ± 0.66 %. The “Percentage” value ([1]; 3 mg/kg PO/QD) was 35.44 ± 1.55 %, the “Right ventricular ejection fraction” value ([1]; 3 mg/kg PO/QD) was 58 ± 1.80 % and the “Right ventricular hypertrophy index” value ([1]; 3 mg/kg PO/QD) was 0.38 ± 0.03. For the same compound, the “Right ventricular systolic pressure” value ([1]; 3 mg/kg PO/QD) was 36.70 ± 3.81 mmHg, the “Right ventricular wall thickness” value ([1]; 3 mg/kg PO/QD) was 1.11 ± 0.05 mm and the “21-day weight change rate” value ([1]; 10 mg/kg PO/QD) was 42.04 ± 3.07%. The PCNA positivity rate ([1]; 10 mg/kg PO/QD) was 2.85 ± 0.65 %, the “Percentage” value ([1]; 10 mg/kg PO/QD) was 40.11 ± 1.07 % and the “Right ventricular ejection fraction” value ([1]; 10 mg/kg PO/QD) was 59.86 ± 2.29 %. For the same compound, the “Right ventricular hypertrophy index” value ([1]; 10 mg/kg PO/QD) was 0.36 ± 0.02, the “Right ventricular systolic pressure” value ([1]; 10 mg/kg PO/QD) was 37.82 ± 3.10 mmHg and the “Right ventricular wall thickness” value ([1]; 10 mg/kg PO/QD) was 1.10 ± 0.05 mm. For the same compound, the “Indicators of pulmonary hypertension and right ventricular function (in words)” value ([1]; doses of 1, 3 and 10 mg/kg) was “significantly improved”, the “Inhibitory effect on bile salt export pump (in words)” value [2] was “extremely weak inhibitory effect” and the AUC0-inf/AUC0-last ([3]; 1 mg/kg gavage) was 111%. It also gave a Tlast ([3]; 1 mg/kg gavage) of 8.00 h, an AUC0-inf/AUC0-last ([3]; 3 mg/kg gavage) of 132% and an AUC(0-inf) ([3]; 3 mg/kg gavage) of 5540 ng·h/mL. It also gave a Tlast ([3]; 3 mg/kg gavage) of 8.00 h, an AUC(0-inf) ([3]; Sprague-Dawley, rat, plasma, po, 1 mg/kg, 1 mg/kg gavage, read-out: AUC0-inf) of 1410 ng·h/mL and an AUC(0-inf) ([3]; Sprague-Dawley, rat, plasma, po, 3 mg/kg, 3 mg/kg gavage, read-out: AUC0-inf) of 5230 ng·h/mL. It also gave an AUC(0-t) [3, 5] of 1270 ng·h/mL, a Cmax [3, 5] of 345 nM and a Tmax [3, 5] of 1 h. For the same compound, the half-life [3, 5] was 2.3 h, the MRT inf [3, 5] was 3.64 h and the MRT last [3, 5] was 2.83 h. For the same compound, the AUC(0-t) [3, 6] was 4220 ng·h/mL, the Cmax [3, 6] was 1120 nM and the Tmax [3, 6] was 1 h. It also gave a half-life [3, 6] of 3.64 h, an MRT inf [3, 6] of 5.52 h and an MRT last [3, 6] of 3.04 h.
